Assay results published in PubChem BioAssay (NCI).
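Method: 48-hour compound exposure of cells in 96-well plates, five concentrations, linear interpolation of endpoints. GI50 marks 50% less growth. TGI: total growth inhibition.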

How the values were obtained:
Experiment in all cases: DTP human tumour cell line panel, 48 h
IGROV1 ovarian = tested on: IGROV1 ovarian
MDA-MB-435 = tested on: MDA-MB-435
NCI-H522 lung = tested on: NCI-H522 lung
NCI/ADR-RES ovarian = tested on: NCI/ADR-RES ovarian
RPMI-8226 leukemia = tested on: RPMI-8226 leukemia
RXF 393 renal = tested on: RXF 393 renal
SK-MEL-2 melanoma = tested on: SK-MEL-2 melanoma
SN12C renal = tested on: SN12C renal
SNB-75 CNS = tested on: SNB-75 CNS
UACC-257 melanoma = tested on: UACC-257 melanoma

Compound	TGI (IGROV1 ovarian) [µM]	TGI (MDA-MB-435) [µM]	TGI (NCI-H522 lung) [µM]	TGI (NCI/ADR-RES ovarian) [µM]	TGI (RPMI-8226 leukemia) [µM]	TGI (RXF 393 renal) [µM]	TGI (SK-MEL-2 melanoma) [µM]	TGI (SN12C renal) [µM]	TGI (SNB-75 CNS) [µM]	TGI (UACC-257 melanoma) [µM]	GI50 (IGROV1 ovarian) [µM]	GI50 (MDA-MB-435) [µM]	GI50 (NCI-H522 lung) [µM]	GI50 (NCI/ADR-RES ovarian) [µM]	GI50 (RPMI-8226 leukemia) [µM]	GI50 (RXF 393 renal) [µM]	GI50 (SK-MEL-2 melanoma) [µM]	GI50 (SN12C renal) [µM]	GI50 (SNB-75 CNS) [µM]	GI50 (UACC-257 melanoma) [µM]
COc1cc2oc(=O)cc(C)c2cc1[N+](=O)[O-]	> 84.8	46.8	26.3	> 79.3	> 75.3	33.8	58	37.2	> 100	33.5										
O=C(Nc1ccc(Cl)c([N+](=O)[O-])c1)Nc1nc2ccccc2s1	17.4	8.15	7.33	11.9	10.5	11.4	5.32	19	15.4	6.99	3.62	2.73	2.44	2.86	2.93	3.76	2.37	3.74	3.97	2.4
CN1CCN(Cc2ccc(-c3cc4ncnc(Nc5ccc(OCc6cccc(F)c6)c(Cl)c5)c4s3)o2)CC1	8.34	10.4	9.46	9.32	9.52	7.52	10.2	7.85	9.11	8.37	3.51	4.68	4.75	4.32	3.91	3.33	5.33	3.79	4.29	4.26
CC(C)C[C@H](NC(=O)[C@H](Cc1ccccc1)n1ccc(N2CCCCC2)cc1=O)B(O)O	> 100	0.371	2.25	> 100	> 100	0.882	4.56	11.1	3.82		5.1	0.177	0.305	17.4	0.321	0.284	0.46	1.5	0.461	
O=C(/C=C/c1ccco1)c1ccc(Nc2nc(Nc3ccc(F)cc3)nc(Nc3ccc(Cl)cc3)n2)cc1	> 81	> 59.6	> 100	> 100	> 82.4	45.9	> 100	> 100	> 80.9	> 57.4	25.8	30.5	31.1	26.1	2.75	7.09	> 49.8	45.6	30.5	15.2
COc1ccc(C(=O)Cn2c(C(=O)c3ccc(Cl)cc3)nc3ccccc32)cc1	> 100	> 23.2	> 100	> 37.4	> 77.8	20.5	> 100	> 100	> 100	> 100	25.7	2.23	10.3	5.15	1.75	3.62	> 32.7	97.8	20.9	> 100
COc1ccc(-c2ccc(C3CC(c4ccc(O)cc4)=NN3)o2)c([N+](=O)[O-])c1 (stereo not given)	> 100	> 100	> 100	> 100	71.9	> 100		> 100			84.9	30	39	38.5	11.6	23.7		30.8		
Oc1ccc(C(c2ccccc2)(c2ccccc2)c2ccccc2)cc1	27.6	38.3	27.2	28.6	45.5	25	27	31.6		31.3	14.3	19.9	13.7	15	22	10.4	13.6	16.9		15.5
CCNC(=O)C[C@@H]1N=C(c2ccc(Cl)cc2)c2cc(OC)ccc2-n2c(C)nnc21	> 100	> 100	> 100	> 100	5.74	> 100	> 100	> 100	1.6	> 100	12.2	1.75	2.08	> 56	0.367	8.9	3.28	15.5	0.034	2
Cn1ccnc1C(=O)/C=C/c1ccc(CC(=O)Nc2ccc(Cl)cc2)cc1	> 25	> 25	> 25	> 25	> 25	> 25	> 25	> 25	> 25	> 25	5.27	9.16	4.85	2.22	0.959	2.97	> 25	3.04	1.9	> 25
S=CN1CCCCC1	> 100	> 100	> 100	> 100	> 100		> 100	> 100	> 100	> 100										
Cn1c(C(N)=O)cc2c1-c1nc(Nc3ccccc3)ncc1CCC2	24.2	> 100	22.7	49.8		5.34	23.1	> 100	8.35	88.7	3.87	3.88	4.13	6.3		1.44	5.42	4.18	1.61	19.7
O=C(Nc1ccc(-c2nc3cc4ccccc4cc3[nH]2)cc1)c1cccc(Br)c1	42.2	20.4	31.8	58.6	56.8	8.28		34.9	26.4	52.3	15	4.72	12.1	15.3	10.6	1.9		8.67	12.4	21
C=C1C(=O)O[C@@H]2C[C@@H]1CC[C@]1(C)O[C@H]1CC[C@@]1(C)O[C@@H]1CC[C@@]2(C)O	> 100	> 100	46.2	46.9	42.7	> 100	> 100	61.5		> 100	24.3	33	19.1	20.1	12.4	55.9	50.1	22.5		61.9
Oc1ccc2ccccc2c1C=NCCCN=Cc1c(O)ccc2ccccc12	> 100	71.2	41.5	49.4	31.1	86.2	37.2			> 100	28.1	10.8	4.91	14.6	4.11	21.8	12.6			21.7
O=C(Nc1ccc(S(=O)(=O)Nc2nccs2)cc1)c1cccnc1Nc1cccc(Cl)c1	53	33.4	28.4	45.7	89.2	33.4		25.9	51.3	43.6	15.4	14.3	11	15.6	19.8	14.4		12.5	9.43	18.8
O=C1c2ccccc2-c2c1c1ccccc1c(=O)n2Cc1ccco1	> 100	> 100	> 100	> 100	> 100		> 100	> 100	> 100	> 100										
O=[N+]([O-])c1cnc(Sc2ccncn2)c([N+](=O)[O-])c1	31.4	18.1	3.45	33.7		4.17	32.9	29.9	27.7	3.38	16.7	4.91	1.82	16.6		1.97	16.8	16	14.4	1.78
CC1=C(C)C(=O)c2c(c(C(=O)c3ccccc3)c3nc4ccccc4n3c2C)C1=O	> 100	> 100	> 100	> 100	> 100		> 100	> 100	40.3	> 100	55.2	> 100	> 100	> 100	> 100		47.8	> 100	15.8	95
CC(O)C1OC(O)C2OC(C)(C)OC12 (stereo not given)	> 100	> 100	> 100	> 100	> 100		> 100	> 100	> 100	> 100										
CCCCCCCCCCCCN1C(C)=CS/C1=C\C=C\c1scc(C)[n+]1CCCCCCCCCCCC		3.68	5.11	34.4		5.29		4.2	4.96	5.68		1.21	1.7	3.06		1.42		1.65	1.2	1.72
